Values joined by “and” are separate entries in the source; they are usually repeats but may differ in a detail not shown here. Identical values can stand only once. Like-named read-outs stand apart in the source and are kept apart here.
Key:
NLRP3 = experiment: Inflammasome stimulation (IL-1β, LDH release) in BMDCs from NLRP3 knockout or ASC knockout mice; format: cell-based, mouse; details: IL-1β and LDH release
Protocol: (§1) For canonical inflammasome activation BMDCs after 7-9 days of differentiation were harvested and counted with a Neubauer Chamber (Hecht Assistant) and the concentration was set to 1 Mio cells ml^−1. 100 μl cell suspension per well were seeded in 96-well plates. The cells were primed with 50 ng ml^−1 E. coli K12 ultra-pure LPS for 3 hours and subsequently treated with canonical inflammasome activators or experimental compounds for 3 hours if not indicated differently (incubation time FIG. 4D, 5, 7, 8, 11, 13-18: 3 h, FIG. 12: 4 h). Concentrations of the stimuli were as follows if not indicated differently: 5 μM nigericin, 100 μM imiquimod (also known as R837), 100 μM CL097, 100 μM R848, […] poly(dA:dT), 300 μg ml^−1 MSU. If an inhibitor was used before stimuli treatment, the inhibitor was added after 2.5 hours of priming and it was incubated for 30 minutes before inflammasome activation. Inhibitors were used as follows: 3 μM MCC950, 45 mM KCl, 30 μM ebselen (2-Phenyl-1,2-benzoselenazol-3-one), 5 μM cytochalasin D (see FIGS. 8, 11, 12 and 17).
(§2) All inflammasome stimulations were performed in three technical replicates for each condition. Lytic cell death was determined via LDH release (see FIGS. 8, 13-16 and 18), cytokines quantified in cell-free supernatants via ELISA (see FIGS. 4D, 7-9, 11-19) and cell lysates and supernatants analyzed via immunoblotting (see FIGS. 5A and 5B) as previously described in detail (Gross, Olaf, 2012 “Measuring the inflammasome”, Methods in molecular biology, Clifton, N.J., 844, pp. 199-222. Schneider, Katharina S.; Thomas, Christina J.; Groß, Olaf, 2013, “Inflammasome activation and inhibition in primary murine bone marrow-derived cells, and assays for IL-1α, IL-1β, and caspase-1”, Methods in molecular biology, Clifton, N.J., 1040, pp. 117-135).

BMDCs = experiment: LDH release (lytic cell death, pyroptosis) from LPS-primed BMDCs; format: cell-based, mouse; details: for Average (% positive control): LDH release; for cytotoxicity at 25 µM / cytotoxicity at 50 µM / cytotoxicity at 75 µM / cytotoxicity at 5 µM / cytotoxicity at 100 µM / cytotoxicity at 20 µM / cytotoxicity at 40 µM / cytotoxicity at 80 µM: Mus musculus, BMDC
Outline: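 Mouse BMDCs (7-9 days differentiated, GM-CSF) primed with 50 ng ml^−1 E. coli K12 LPS for 3 hours, then exposed 3 hours to compounds (50 μM unless indicated) or activators (nigericin 5 μM; R837, CL097 100 μM). Lytic death measured as LDH release by colorimetric assay, triplicate wells.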

NLRP3 inflammasome [1] = biological target: T1, NLRP3 inflammasome (Mus musculus, UniProt Q8R4B8); experiment: IL-1β release from LPS-primed BMDCs (ELISA) as readout of NLRP3 inflammasome activation; format: cell-based
T1 construct: endogenous in cells; host or cells: primary mouse bone marrow-derived dendritic cells (BMDCs), LPS-primed
T1 sequence (Q8R4B8 whole entry): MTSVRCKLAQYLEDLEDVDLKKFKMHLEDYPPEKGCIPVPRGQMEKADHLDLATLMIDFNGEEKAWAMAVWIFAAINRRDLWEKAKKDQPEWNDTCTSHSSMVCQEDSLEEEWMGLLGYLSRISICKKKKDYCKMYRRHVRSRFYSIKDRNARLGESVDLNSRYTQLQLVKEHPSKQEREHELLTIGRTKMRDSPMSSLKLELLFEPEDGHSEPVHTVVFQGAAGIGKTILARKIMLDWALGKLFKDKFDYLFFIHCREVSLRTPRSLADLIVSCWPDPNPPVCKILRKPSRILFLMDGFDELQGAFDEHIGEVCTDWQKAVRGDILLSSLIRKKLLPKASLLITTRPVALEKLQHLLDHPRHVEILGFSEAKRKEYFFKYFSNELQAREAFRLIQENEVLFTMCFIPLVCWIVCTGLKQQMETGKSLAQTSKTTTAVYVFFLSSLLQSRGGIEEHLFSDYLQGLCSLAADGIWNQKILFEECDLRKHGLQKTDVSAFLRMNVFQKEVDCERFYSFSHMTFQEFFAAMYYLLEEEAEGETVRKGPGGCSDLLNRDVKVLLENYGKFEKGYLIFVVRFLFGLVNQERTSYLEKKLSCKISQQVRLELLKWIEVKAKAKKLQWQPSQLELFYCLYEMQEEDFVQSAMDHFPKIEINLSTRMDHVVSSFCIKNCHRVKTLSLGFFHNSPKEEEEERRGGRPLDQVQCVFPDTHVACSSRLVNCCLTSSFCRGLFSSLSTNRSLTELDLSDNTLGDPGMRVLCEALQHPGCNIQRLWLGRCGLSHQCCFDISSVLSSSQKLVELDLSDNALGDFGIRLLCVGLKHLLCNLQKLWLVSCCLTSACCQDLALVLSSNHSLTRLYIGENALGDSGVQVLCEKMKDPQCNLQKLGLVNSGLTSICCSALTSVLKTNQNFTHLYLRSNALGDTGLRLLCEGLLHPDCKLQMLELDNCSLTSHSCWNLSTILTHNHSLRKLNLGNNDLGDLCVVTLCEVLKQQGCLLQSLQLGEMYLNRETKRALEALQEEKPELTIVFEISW
Outline: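 NLRP3 inflammasome activation was read out as IL-1β released into the supernatant, measured by ELISA. Murine BMDCs were primed with LPS (50 ng ml^−1, 3 hours), then incubated with compounds for 3 hours, with each condition run in three technical replicates. Nigericin at 5 μM acted as the positive control activator, and IL-1β release was also expressed as a percentage of that control.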

NLRP3 inflammasome [2] = biological target: T1, NLRP3 inflammasome; experiment: Inflammasome stimulation of BMDCs after pre-incubation with inhibitors (MCC950, KCl, ebselen, cytochalasin D); format: cell-based
Protocol: as §1, with “Inhibitors were used as follows: 3 μM MCC950, 45 mM KCl, 30 μM ebselen (2-Phenyl-1,2-benzoselenazol-3-one), 5 μM cytochalasin D (see FIGS. 8, 11, 12 and 17).” left out
as §2

S=C(Nc1ccccc1)Nc1ccc2ncccc2c1 [AH4, 1-phenyl-3-(quinolin-6-yl) thiourea]
characteristics of inflammasome activation in cells isolated from NLRP3 knockout mice (NLRP3): do not occur
Average (% positive control) (BMDCs; 25 μM, positive control EN22 10 μM): 24.359 % positive control
Average (% positive control) (BMDCs; 50 μM, positive control EN22 10 μM): 73.142 % positive control
Average (% positive control) (BMDCs; 75 μM, positive control EN22 10 μM): 89.204 % positive control
cytotoxicity at 25 µM (BMDCs; 25 μM, AH series table, read-out: Average LDH release (% of max.)): 18.7%
cytotoxicity at 25 µM (BMDCs; 25 μM, individual replicate values, AH series table, read-out: LDH release (% of max.)): 20%
cytotoxicity at 50 µM (BMDCs; 50 μM, AH series table, read-out: Average LDH release (% of max.)): 56.2%
cytotoxicity at 50 µM (BMDCs; 50 μM, individual replicate values, AH series table, read-out: LDH release (% of max.)): 57.6%
cytotoxicity at 75 µM (BMDCs; 75 μM, individual replicate values, read-out: LDH release (% of max.)): 67.9%
cytotoxicity at 75 µM (BMDCs; 75 μM, read-out: Average LDH release (% of max.)): 68.5%
Average IL-1β (NLRP3 inflammasome [1]; 25 μM, AH series table): 2.151 ng/mL
IL-1β (NLRP3 inflammasome [1]; 25 μM, individual replicate values, AH series table): 2.340 ng/mL and 2.250 ng/mL and 1.863 ng/mL
Average IL-1β (NLRP3 inflammasome [1]; 50 μM, AH series table): 10.000 ng/mL
IL-1β (NLRP3 inflammasome [1]; 50 μM, individual replicate values, AH series table): 10.000 ng/mL
Average IL-1β (NLRP3 inflammasome [1]; 75 μM, AH series table): 9.996 ng/mL
IL-1β (NLRP3 inflammasome [1]; 75 μM, individual replicate values, AH series table): 9.988 ng/ml and 10.000 ng/ml (2×)
Average (% positive control) (NLRP3 inflammasome [1]; IL-1β, 25 μM, positive control EN22 10 μM): 21.507 % positive control
Average (% positive control) (NLRP3 inflammasome [1]; IL-1β, 50 μM, positive control EN22 10 μM): 100.000 % positive control
Average (% positive control) (NLRP3 inflammasome [1]; IL-1β, 75 μM, positive control EN22 10 μM): 99.960 % positive control

O=C(Nc1cc(C(F)F)ns1)Nc1cc(F)ncc1CO [BRM/BRG1 ATP Inhibitor-1, reference compound]
characteristics of inflammasome activation in cells isolated from NLRP3 knockout mice (NLRP3): do not occur
cytotoxicity at 5 µM (BMDCs; section 1.3, 5 μM, read-out: Average LDH release (% of max.)): 16.6%
cytotoxicity at 50 µM (BMDCs; section 1.3, 50 μM, read-out: Average LDH release (% of max.)): 35.4%
cytotoxicity at 100 µM (BMDCs; section 1.3, 100 μM, read-out: Average LDH release (% of max.)): 24.8%
cytotoxicity at 5 µM (BMDCs; section 1.3, single replicates, 5 μM, read-out: LDH release (% of max.)): 14.1%
cytotoxicity at 50 µM (BMDCs; section 1.3, single replicates, 50 μM, read-out: LDH release (% of max.)): 38.5%
cytotoxicity at 100 µM (BMDCs; section 1.3, single replicates, 100 μM, read-out: LDH release (% of max.)): 27%
Average (% positive control) (BMDCs; section 1.3, 5 μM, positive control nigericin 5 μM): 30.921 % positive control
Average (% positive control) (BMDCs; section 1.3, 50 μM, positive control nigericin 5 μM): 65.959 % positive control
Average (% positive control) (BMDCs; section 1.3, 100 μM, positive control nigericin 5 μM): 46.154 % positive control
Average IL-1β (NLRP3 inflammasome [1]; section 1.3, 5 μM): 3.664 ng/mL
Average IL-1β (NLRP3 inflammasome [1]; section 1.3, 50 μM): 5.980 ng/mL
Average IL-1β (NLRP3 inflammasome [1]; section 1.3, 100 μM): 5.023 ng/mL
Average (% positive control) (NLRP3 inflammasome [1]; section 1.3, IL-1β release, 5 μM, positive control nigericin 5 μM): 116.295 % positive control
Average (% positive control) (NLRP3 inflammasome [1]; section 1.3, IL-1β release, 50 μM, positive control nigericin 5 μM): 189.7925 % positive control
Average (% positive control) (NLRP3 inflammasome [1]; section 1.3, IL-1β release, 100 μM, positive control nigericin 5 μM): 159.415 % positive control
IL-1β (NLRP3 inflammasome [1]; section 1.3, single replicates, 5 μM): 3.556 ng/mL and 3.899 ng/mL and 3.537 ng/mL
IL-1β (NLRP3 inflammasome [1]; section 1.3, single replicates, 50 μM): 4.561 ng/mL and 6.642 ng/mL and 6.737 ng/mL
IL-1β (NLRP3 inflammasome [1]; section 1.3, single replicates, 100 μM): 7.150 ng/mL and 3.831 ng/mL and 4.087 ng/mL

COc1ccccc1NC(=O)NCc1nc(-c2ccc(C(F)(F)F)cc2)no1 [EN21, 1-(2-methoxyphenyl)-3-((3-(4-(trifluoromethyl)phenyl)-1,2,4-oxadiazol-5-yl)methyl)urea]
characteristics of inflammasome activation in cells isolated from NLRP3 knockout mice (NLRP3): do not occur
Average (% positive control) (BMDCs; compound 50 μM, positive control nigericin 5 μM): 68.766 % positive control
cytotoxicity at 50 µM (BMDCs; compound 50 μM, LPS-primed BMDCs, read-out: Average LDH release (% of max.)): 50.3%
EC50 for induction of IL-1β, times lower than for imiquimod and CL097 (NLRP3 inflammasome [1]; BMDCs, FIG. 4D): 10 times
Average (% positive control) (NLRP3 inflammasome [1]; IL-1β release, compound 50 μM, positive control nigericin 5 μM): 108.566 % positive control
Average IL-1β (NLRP3 inflammasome [1]; compound 50 μM, LPS-primed BMDCs): 7.782 ng/mL
IL-1β (NLRP3 inflammasome [1]; single replicates, compound 50 μM, LPS-primed BMDCs): 8.582 ng/mL and 7.428 ng/mL and 8.023 ng/mL and 6.613 ng/mL and 8.352 ng/mL and 7.696 ng/mL
dependence of NLRP3 inflammasome activation on potassium efflux from the cell (NLRP3 inflammasome [2]; 50 mM extracellular KCl, FIGS. 11 and 17): independently of potassium efflux
effect of the endocytosis inhibitor cytochalasin D on NLRP3 activation (NLRP3 inflammasome [2]; LPS-primed wild-type BMDCs, FIG. 12): has no effect
effect of the NLRP3-specific inhibitor MCC950 on inflammasome activation by the compound (NLRP3 inflammasome [2]; wild-type BMDCs, compound 50 μM, FIG. 8): completely suppresses

COCCNC(=O)c1cc(-c2ccn(C3CCCC3)n2)n2ccccc12 [EN54]
characteristics of inflammasome activation in cells isolated from NLRP3 knockout mice (NLRP3): do not occur

COc1ccc(NC(=O)Nc2ccc3ncccc3c2)cc1 [JB010, 1-(4-methoxyphenyl)-3-(quinolin-6-yl)urea]
characteristics of inflammasome activation in cells isolated from NLRP3 knockout mice (NLRP3): do not occur
Average (% positive control) (BMDCs; 20 μM, positive control EN22 20 μM): 44.689 % positive control
Average (% positive control) (BMDCs; 40 μM, positive control EN22 20 μM): 62.649 % positive control
Average (% positive control) (BMDCs; 80 μM, positive control EN22 20 μM): 77.427 % positive control
cytotoxicity at 20 µM (BMDCs; 20 μM, individual replicate values, read-out: LDH release (% of max.)): 24.4%
cytotoxicity at 20 µM (BMDCs; 20 μM, read-out: Average LDH release (% of max.)): 23.8%
cytotoxicity at 40 µM (BMDCs; 40 μM, individual replicate values, read-out: LDH release (% of max.)): 31.4%
cytotoxicity at 40 µM (BMDCs; 40 μM, read-out: Average LDH release (% of max.)): 33.4%
cytotoxicity at 80 µM (BMDCs; 80 μM, individual replicate values, read-out: LDH release (% of max.)): 38.6%
cytotoxicity at 80 µM (BMDCs; 80 μM, read-out: Average LDH release (% of max.)): 41.2%
Average IL-1β (NLRP3 inflammasome [1]; 20 μM): 2.404 ng/mL
IL-1β (NLRP3 inflammasome [1]; 20 μM, individual replicate values): 2.200 ng/mL and 3.078 ng/mL and 1.934 ng/mL
Average IL-1β (NLRP3 inflammasome [1]; 40 μM): 2.655 ng/mL
IL-1β (NLRP3 inflammasome [1]; 40 μM, individual replicate values): 2.727 ng/mL and 2.742 ng/mL and 2.498 ng/mL
Average IL-1β (NLRP3 inflammasome [1]; 80 μM): 3.966 ng/mL
IL-1β (NLRP3 inflammasome [1]; 80 μM, individual replicate values): 2.757 ng/mL and 3.613 ng/mL and 5.527 ng/mL
Average (% positive control) (NLRP3 inflammasome [1]; IL-1β, 20 μM, positive control EN22): 122.814 % positive control
Average (% positive control) (NLRP3 inflammasome [1]; IL-1β, 40 μM, positive control EN22): 135.661 % positive control
Average (% positive control) (NLRP3 inflammasome [1]; IL-1β, 80 μM, positive control EN22): 202.590 % positive control

Source: US20240277658A1, “NLRP3 ACTIVATORS FOR USE IN THE TREATMENT OF INFECTIOUS DISEASES OR CANCER BY ACTIVATING NLRP3 INFLAMMASOME” (ALBERT-LUDWIGS-UNIVERSITÄT FREIBURG, priority 2020, published 2024)
